The text below walks through data of patent US11173196B2, “Vectors for expression of prostate-associated antigens” (Pfizer Inc., priority 2013, dated 2021).

For data set [1] the following is noted: cited from earlier work.
In data set [2] the test system is 293 cells. In words: Expression of PSMA constructs in mammalian 293 cells by FACS. It is filed as cell-based. Here is the method: The expression of the PSMA cytosolic, secreted, and modified antigens was determined by FACS. Mammalian 293 cells were transfected with the PJV7563 PMED vectors encoding the various immunogenic PSMA polypeptides. Three days later, the 293 cells were stained with mouse anti-PSMA antibody, followed with a fluorescent conjugated (FITC) rat anti-mouse secondary antibody.

The test system of data set [3] is rhesus PSMA. In words: IFNγ ELISPOT from PBMCs, rhesus PSMA adenovirus vaccine with subcutaneous anti-CTLA-4 antibody. It is filed as in vivo, Indian rhesus macaques. Here is the method:
Animal Treatment and Sample Collection. Five groups of male Indian rhesus macaques, seven (#1 to 7) per each test group, were immunized with an adenovirus encoding a rhesus PSMA modified polypeptide delivered by bilateral intramuscular injections (2× 5e10 V.P.). Immediately following the adenovirus injections, group 1 received vehicle, and groups 2 to 4 received bilateral subcutaneous injections of anti-CTLA-4 antibody (CP-675, 206) at doses 2× 25 mg, 2× 16.7 mg and 2× 8.4 mg respectively in proximity to the vaccine draining lymph node.
Nine days after the immunization, peripheral blood mononuclear cells (PBMCs) were isolated from each animal and were subjected to an IFNγ ELISPOT assay to measure the rhesus PSMA specific T cell responses. Briefly, 4e5 PBMCs from individual animals were plated per well with pools of rhesus PSMA specific peptides (P1, P2, P3 or R1+R2 defined in Table 24A) or nonspecific control peptides (human HER2 peptide pool) each at 2 ug/ml in IFN[…] ELISPOT plates. The plates were incubated for 16 hrs at 37° C. and 5% CO2 and washed and developed after incubation as per manufacturer's instruction. The number of IFNγ spot forming cells (SFC) was counted by CTL reader. Each condition was performed in duplicates. The average of the duplicates from the background adjusted SFC of the rhesus PSMA specific peptide pools was normalized to the response in 1e6 PBMCs.
IFNγ ELISPOT Assay Procedure. A capture antibody specific to IFNγ ([…]BD Bioscience, #51-2525kc) is coated onto a polyvinylidene fluoride (PVDF) membrane in a microplate overnight at 4° C. The plate is blocked with serum/protein to prevent nonspecific binding to the antibody. After blocking, effector cells (such as splenocytes isolated from immunized mice or PBMCs isolated from rhesus macaques) and targets (such as PSMA peptides from peptide library, target cells pulsed with antigen specific peptides or tumor cells expressing the relevant antigens) are added to the wells and incubated overnight at 37° C. in a 5% CO2 incubator. […]

For data set [4] the following is noted: cited from earlier work. The source holds these as a separate data set.

Where two headings read alike, the source gives them in different places.

Consider 5′ TCGTCGTTTTGTCGTTTTGTCGTT3′ [CpG7909], for which, in data set [1] (single dose subcutaneous), the dose limiting toxicity result was “myalgia and constitutional effects”; the “maximum tolerated dose (MTD)” value is 0.45 mg/kg. Besides, in data set [1] (single intravenous dose), the “dose well tolerated with no clinical effects and no significant toxicity” value is given as “up to 1.05 mg/kg”.

With “human PSMA modified antigen (SEQ ID NO: 9): immunogenic polypeptide of amino acids 15-750 of human PSMA, membrane-bound, expressed from DNA construct in PJV7563 vector”, the “Average mean fluorescent intensity” value in data set [2] (293 cells transfected with PJV7563 vector, stained three days later with mouse anti-PSMA antibody) is given as 12270. Moreover, in data set [2] (transfected 293 cells, FACS), the “expression on the cell surface” value is reported as “expressed on the cell surface”.

Consider “CP-675,206: fully human IgG2 anti-CTLA-4 monoclonal antibody, CAS 745013-59-6”, for which the “vaccine induced immune response compared to vaccine alone” value in data set [3] (16.7 mg subcutaneous (group 4), P=0.05) is reported as “significantly enhanced”; in data set [3] (33.4 mg subcutaneous (group 3), P=0.004), “significantly enhanced”; in data set [3] (dose of 50 mg subcutaneous (group 2), P=0.001 by Student's T-test), “significantly enhanced”.

For “CP-870893: fully human agonistic CD40 monoclonal antibody, heavy and light chain SEQ ID NO: 40 and 41”, in data set [4] (human, in vivo, iv), the dose-limiting toxicities result is “grade 3 CRS and grade 3 urticaria”. Also, in data set [4] (phase I clinical study, intravenous infusion), the “maximum tolerated dose (MTD)” value is recorded as 0.2 mg/kg.
